Consider ten compounds from patent US7354940B2, “2,5-dioxoimidazolidin-4-yl acetamines and analogues as inhibitors of metalloproteinase mmp12” (AstraZeneca AB, priority 2002, dated 2008).

T1 sequence (P39900 106-263 limits assumed): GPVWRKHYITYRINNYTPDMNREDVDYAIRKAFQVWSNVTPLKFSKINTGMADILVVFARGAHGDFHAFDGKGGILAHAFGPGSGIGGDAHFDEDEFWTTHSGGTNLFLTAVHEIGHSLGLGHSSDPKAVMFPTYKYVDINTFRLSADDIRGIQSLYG

The experiment has as its target T1, Recombinant human MMP12 catalytic domain (Homo sapiens, UniProt P39900).
T1 construct: Recombinant human MMP12 catalytic domain; made in house
Briefly: Isolated enzyme assay (MMP12 enzyme assay). It counts as biochemical. As to conditions: fluorogenic substrate Mac-Pro-Cha-Gly-Nva-His-Ala-Dpa-NH2, 60 minutes at room temperature, pH 7.3. The method, then:
Recombinant human MMP12 catalytic domain may be expressed and purified as described by Parkar A. A. et al, (2000), Protein Expression and Purification, 20:152. The purified enzyme can be used to monitor inhibitors of activity as follows: MMP12 (50 ng/ml final concentration) is incubated for 60 minutes at room temperature with the synthetic substrate Mac-Pro-Cha-Gly-Nva-His-Ala-Dpa-NH2 in assay buffer (0.1M “Tris-HCl” (trade mark) buffer, pH 7.3 containing 0.1M NaCl, 20 mM CaCl2, 0.020 mM ZnCl and 0.05% (w/v) “Brij 35 ” (trade mark) detergent) in the presence (5 concentrations) or absence of inhibitors. Activity is determined by measuring the fluorescence at λex 320 nm and λem 405 nm. Percent inhibition is calculated as follows: % Inhibition is equal to the [Fluorescenceplus inhibitor−Fluorescencebackground] divided by the [Fluorescenceminus inhibitor−Fluorescenebackground].
For `O=C(CC1NC(=O)NC1=O)NCCc1ccc(-c2ccc(F)cc2)cc1` (stereo not shown) [Example 1, 2-(2,5-Dioxoimidazolidin-4-yl)-N-[2-(4′-fluoro-biphenyl-4-yl)-ethyl]-acetamide], the half-inhibitory concentration (IC50) worked out at 22 nM.

For the compound `N#Cc1ccc(-c2ccc(CCNC(=O)CC3NC(=O)NC3=O)cc2)cc1` (stereo not shown) [Example 2, N-[2-(4′-Cyano-biphenyl-4-yl)-ethyl]-2-(2,5-dioxoimidazolidin-4-yl)-acetamide], the IC50 amounted to 7 nM.

Take `O=C(CC1NC(=O)NC1=O)NCCc1ccc(-c2ccccc2)cc1` (stereo not shown) [Example 5, N-(2-Biphenyl-4-yl-ethyl)-2-(2,5-dioxoimidazolidin-4-yl)-acetamide]: the IC50 worked out at 32 nM.

Regarding `O=C(CC1NC(=O)NC1=O)NCCc1ccc(-c2cccs2)cc1` (stereo not shown) [Example 14, 2-(2,5-Dioxoimidazolidin-4-yl)-N-[2-(4-thiophen-2-yl-phenyl)ethyl]-acetamide], the IC50 worked out at 6 nM.

Consider `O=C(CC1NC(=O)NC1=O)NCCc1ccc(-c2cc(Cl)cc(Cl)c2)cc1` (stereo not shown) [Example 21, N-[2-(3′,5′-Dichloro-biphenyl-4-yl)ethyl]-2-(2,5-dioxoimidazolidin-4-yl)-acetamide], for which the IC50 turned out to be 8 nM.

`Cc1cccc(-c2ccc(CCNC(=O)CC3NC(=O)NC3=O)cc2)c1` (stereo not shown) [Example 22, 2-(2,5-Dioxoimidazolidin-4-yl)-N-[2-(3′-methyl-biphenyl-4-yl)ethyl]-acetamide]: the IC50 worked out at 15 nM.

For the compound `O=C(CC1NC(=O)NC1=O)NCCc1ccc(-c2cc3ccccc3o2)cc1` (stereo not shown) [Example 23, N-[2-(4-Benzofuran-2-yl-phenyl)ethyl]-2-(2,5dioxoimidazolidin-4-yl)-acetamide], the IC50 turned out to be 6 nM.

On to `COc1cccc(-c2ccc(CCNC(=O)CC3NC(=O)NC3=O)cc2)c1` (stereo not shown) [Example 24, 2-(2,5-Dioxoimidazolidin-4-yl)-N-[2-(3′-methoxy-biphenyl-4-yl)ethyl]-acetamide], for which the IC50 worked out at 4 nM.

Take `CC(=O)c1ccc(-c2ccc(CCNC(=O)CC3NC(=O)NC3=O)cc2)cc1` (stereo not shown) [Example 26, N-[2-(4′-Acetyl-biphenyl-4-yl)ethyl]-2-(2,5-dioxoimidazolidin-4-yl)-acetamide]: the half-maximal inhibitory concentration (IC50) turned out to be 17 nM.

With `O=C(CC1NC(=O)NC1=O)NCCc1ccc(-c2cc3ccccc3s2)cc1` (stereo not shown) [Example 27, N-[2-(4-Benzo[b]thiophen-2-yl-phenyl)ethyl]-2-(2,5-dioxoimidazolidin-4-yl)-acetamide], the IC50 is 5 nM.

One may read the IC50 as the point on the concentration scale where inhibition reaches its midpoint.
